Laboratory results reported in publication PMC12587390, “Metabolite Identification Data in Drug Discovery, Part 1: Data Generation and Trend Analysis” (Molecular Pharmaceutics, 2025).

Columns and labels:
[1] = MetID on in vivo dog samples (plasma, urine); parameters: species or system dog (beagles); conditions: for % of the total MS area, Dog Plasma (Female): sampled at 3 h and 30 min
Procedure: (§1) The workup procedure could vary somewhat depending on the compound and dose, but the general procedure was as follows: Two volumes of ACN/methanol (1:1, v:v) were added to the plasma samples and vortex-mixed to precipitate the proteins. Thereafter, the samples were centrifuged for 10 min (at 10,000 g and 4 °C), and the supernatants were diluted with one volume of water. The urine samples were diluted with one volume of ACN/methanol (1:1, v:v) and centrifuged for 10 min (at 10,000 g and 4 °C), followed by a 1:1 dilution with water.
(§2) Structural characterization of metabolites and metabolite profiling were performed using the Waters Acquity ultraperformance liquid chromatography (UPLC) system fitted to a Waters High-Resolution Mass Spectrometer (MS) (Xevo G2-S, Synapt G2-Si, or a Synapt XS MS). The Waters MS systems, equipped with an electrospray ionization (ESI) source, were operated in positive-ion sensitivity mode over a mass range m/z 50–1200 and in negative-ion sensitivity mode over a mass range m/z of 50–1200.
(§3) The reversed-phase gradient elution was performed on an Acquity U(H)-PLC BEH C18 column (2.1 × 100 mm, 1.7 μm, Waters) set at 45 °C. The mobile phases consisted of 0.1% FA in water (A) and ACN (B). […] The injection volume was 2 μL. The MS settings were optimized for the respective MS instrument. […] A scan time of 0.1 s was used, and data were acquired in centroid mode. Collision energy was set to “off” for the low-energy function, whereas in the high-energy MSe functions, the collision energies were typically ramped from 15 to 35 V in the trap cell, with constant collision energies of 20 V in their transfer cells. Cone voltage was set to 25 V for both low- and high-energy functions. For dedicated MS/MS, the m/z of the molecular ion was selected in the quadrupole, and the mass range for fragmentation analysis was typically set between 50 and 1200. The collision energies were either the same as those stated above for MSe data generation or optimized for a specific metabolite. Tune parameters for all MS analyses consisted of a capillary energy of 0.5 kV, sampling cone energy of 40 V, source temperature of 150 °C, desolvation temperature of 550 °C, cone gas flow of 0 L/h, desolvation gas flow of 1200 L/h, and nebulizer pressure of 6.5 bar.
(§4) Metabolite identification was conducted by processing the generated data using the MetaboLynx XS browser (Waters), MassMetaSite and the web interface ONIRO (Mass Analytica). […] Accurate masses of metabolites were determined from the protonated molecules in the positive ESI time-of-flight MS (ESI–TOF–MS) mode and from the deprotonated molecules in the negative ESI–TOF–MS mode. […] For those metabolites where no MS/MS data could be acquired, identification was based on the accurate mass of the molecular ion and the fragmentation seen in the MSe spectrum. Relative amounts of detected metabolites were calculated as % of the total MS area by dividing the MS peak area for the metabolite (or parent compound) by the combined MS peak area for the parent compound and all identified metabolites.

[2] = MetID on in vivo rat plasma samples; parameters: species or system rat (Han Wistar); conditions: after Cmpd 28; sampled at 4 h
Procedure: as §1, §2, §3, §4

dog hepatocytes = assay: Metabolite identification in dog hepatocyte incubations; assay type: in vitro ADME; conditions: for Parent, % of the total MS area: dog hepatocytes, incubated for 120 min
Procedure: (§5) Cryopreserved, pooled primary human, dog, and rat hepatocytes were obtained from BioIVT (previously Celsis IVT). L-15 Leibovitz buffer was placed in a water bath to reach 37 °C. Cryopreserved hepatocytes were transferred from a −150 °C freezer on dry ice and immediately immersed in a preheated water bath kept at 37 °C for thawing. When only a small ice crystal could be seen, the content was emptied into a 50 mL falcon tube filled with warm buffer (maximum four vials/falcon tube). The suspension was centrifuged at room temperature for 3 min at 50 g. The supernatant was removed, the pellet was resuspended in a small volume of buffer, and the falcon tube was refilled with buffer, followed by another centrifugation to wash away any remaining storage buffer. Thereafter, the supernatant was removed, and the pellet was dissolved in a small volume of buffer and diluted to a concentration of about 3–5 million cells/mL. After counting the cells using a Casy cell counter, the suspension was diluted to 1 million viable cells/mL and kept at room temperature until use. The viability cutoff was 80%.
(§6) An aliquot of 245 μL of hepatocyte suspension was added to a round-bottomed 96-deep-well plate using a manual multipipette. The deep-well plate was preincubated for 15 min at 37 °C and 13 Hz. Substrate solutions of the assay compounds were prepared by the robot in a 96-well plate as follows: 4 μL of 10 mM DMSO stock solution, followed by the addition of 96 μL of ACN:water (1:1, v:v) and mixing by shaking. 50 μL from each well were transferred to and combined in a new plate, resulting in 100 μL per well and a dilution of 1:1.
(§7) The reaction was started by the addition of 5 μL of 200 μM substrate solution to the preheated hepatocyte suspension, resulting in a final substrate concentration of 4 μM (0.04% DMSO, <0.5% ACN). The incubation was continued at 37 °C and 13 Hz. At each time point (0, 40, and 120 min), a 50 μL sample was taken out and quenched in 200 μL of cold ACN:methanol (1:1, v:v), and the stopped plates were centrifuged for 20 min (set at 4 °C and 4000 g). The supernatant was diluted by taking 50 μL and mixing it with 100 μL of water. Incubations of the positive controls, albendazole and dextromethorphan, were performed in parallel as described above.
as §2
(§8) The reversed-phase gradient elution was performed on an Acquity U(H)-PLC BEH C18 column (2.1 × 100 mm, 1.7 μm, Waters) set at 45 °C. The mobile phases consisted of 0.1% FA in water (A) and ACN (B). […] The injection volume was 2 μL. The MS settings were optimized for the respective MS instrument. […] A scan time of 0.1 s was used, and data were acquired in centroid mode. Collision energy was set to “off” for the low-energy function, whereas in the high-energy MSe functions, the collision energies were typically ramped from 15 to 35 V in the trap cell, with constant collision energies of 20 V in their transfer cells. Cone voltage was set to 25 V for both low- and high-energy functions. For dedicated MS/MS, the m/z of the molecular ion was selected in the quadrupole, and the mass range for fragmentation analysis was typically set between 50 and 1200. The collision energies were either the same as those stated above for MSe data generation or optimized for a specific metabolite.

rat hepatocytes = assay: Metabolite identification in rat hepatocyte incubations; assay type: in vitro ADME; conditions: Cmpd 28 incubated for 120 min, 4 μM
Procedure: as §5, §6
as §7, with “The supernatant was diluted by taking 50 μL and mixing it with 100 μL of water. Incubations of the positive controls, albendazole and dextromethorphan, were performed in parallel as described above.” left out

human hepatocytes [3] = assay: Metabolic stability in human hepatocytes (HH CLint); assay type: in vitro ADME; conditions: 37 °C, 2 h
Procedure: Metabolic stability in human hepatocytes (HH CLint) was measured by incubating the cells with the test compound at 37 °C for 2 h. An aliquot of the mixture was taken at typically nine defined time points, and the metabolic reaction was stopped by adding ACN. The samples were centrifuged, and the supernatant was analyzed via LC-MS/MS. Intrinsic clearance (CLint) was calculated from the disappearance rate of the parent compound. ,

human hepatocytes [4] = assay: Metabolite identification in human hepatocyte incubations; assay type: in vitro ADME; conditions: 4 μM
Procedure: as §5, §6, §7, §2, §8

O=C(O)[C@H]1OC(OC(=O)[C@@H]2CCCC[C@H]2C(=O)c2ccc(-c3cc[nH]n3)cc2)[C@H](O)[C@@H](O)[C@@H]1O (some centres unmarked) [Cmpd 16 M13]
% of the total MS area, Dog Plasma (Female) ([1]; after Cmpd 16, semiquantitative): 0.5%

O=C(O)[C@@H]1CCCC[C@H]1C(=O)c1ccc(-c2cc(CO)[nH]n2)cc1 [Cmpd 28 M10]
% of the total MS area, Rat Plasma (Male) [2]: 1%

Cc1cc(-c2ccc(C(=O)[C@@H]3CCCC[C@H]3C(=O)O)cc2)n[nH]1 [Cmpd 28 M1]
% of the total MS area, Dog Hepatocytes (Mixed gender) (dog hepatocytes; Cmpd 28 incubated for 120 min, 4 μM): 4%
% of the total MS area, Rat Hepatocytes (Mixed gender) (rat hepatocytes): no detection
% of the total MS area, Dog Plasma (Female) ([1]; after Cmpd 28): 12%
% of the total MS area, Rat Plasma (Female) [2]: 18%
% of the total MS area, Rat Plasma (Male) [2]: 17%

Cc1cc(-c2ccc(C(=O)[C@@H]3CCCC[C@H]3C(=O)Nc3c[nH]nc3C)cc2)n[nH]1 [Cmpd 28 M11]
% of the total MS area, Dog Plasma (Female) ([1]; after Cmpd 28): 0.5%
% of the total MS area, Rat Plasma (Female) [2]: <1%
% of the total MS area, Rat Plasma (Male) [2]: 1%

Cc1cc(-c2ccc(C(=O)[C@@H]3CCCC[C@H]3C(N)=O)cc2)n[nH]1 [Cmpd 28 M8]
% of the total MS area, Rat Plasma (Female) [2]: 1%
% of the total MS area, Rat Plasma (Male) [2]: 3%

CCCC(CN1CC(O)C1)N(C)C(=O)c1ccc(Cl)cc1 (centres unmarked) [Cmpd 51, CCC[C@@H](CN1CC(O)C1)N(C)C(=O)c1ccc(Cl)cc1]
Parent, % of the total MS area (dog hepatocytes): 80%
N-oxide, % of the total MS area ([1]; dog plasma, sampled at 60 min): not observed
Parent, % of the total MS area ([1]; dog plasma, sampled at 60 min): 20%
N-oxide, % of the total MS area ([1]; dog urine, sampled at 7–24 h): not observed
Parent, % of the total MS area ([1]; dog urine, sampled at 7–24 h): 22%

CN(C(=O)c1ccc(Cl)cc1)C(CN1CC(O)C1)C1CC1 (centres unmarked) [Cmpd 47, CN(C(=O)c1ccc(Cl)cc1)[C@H](CN1CC(O)C1)C1CC1]
Parent, % of the total MS area (dog hepatocytes): 83%
Parent, % of the total MS area ([1]; dog plasma, sampled at 30 min): 5%
Parent, % of the total MS area ([1]; dog urine, sampled at 7–24 h): 5%

COc1ccc(-c2nnc(C(=O)N3CC(Oc4ccc(CN(C)C)c(C)c4)C3)o2)cc1 [Cmpd 67, COc1ccc(-c2nnc(C(=O)N3CC(Oc4ccc(CN(C)C)c(C)c4)C3)o2)cc1]
HH CLint (human hepatocytes [3]): 16 μL/min/1E6
Metabolites / metabolic pathways identified (human hepatocytes [4]): N- and O-demethylation are major metabolic pathways

Cc1cc(-c2ccc(C(=O)[C@@H]3CCCC[C@H]3C(=O)Nc3cn(C)nc3C)cc2)n[nH]1 [Cmpd 28, Cc1cc(-c2ccc(C(=O)[C@@H]3CCCC[C@H]3C(=O)Nc3cn(C)nc3C)cc2)n[nH]1]
% of the total MS area, Dog Plasma (Female) ([1]; after Cmpd 28): 34%
